According to patent US10034476B2, “Insecticidal phenyl-or pyridyl-piperdine compounds” (Syngenta Participations AG, priority 2008, dated 2018):

Columns and labels:
Assay type in all cases: in vivo
Spodoptera littoralis = Spodoptera littoralis (Egyptian cotton leafworm) cotton leaf disc spray test; conditions: foliar, 72 h, 200 ppm spray on cotton leaf discs, L1 larvae, 3 DAT, mortality, feeding behavior, growth regulation
Text: Spodoptera littoralis (Egyptian Cotton Leafworm) Cotton leaf discs were placed on agar in a 24-well microtiter plate and sprayed with test solutions at an application rate of 200 ppm. After drying, the leaf discs were infested with 5 L1 larvae. The samples were checked for mortality, feeding behavior, and growth regulation 3 days after treatment (DAT).

Heliothis virescens = Heliothis virescens (tobacco budworm) egg/artificial diet test; conditions: 96 h, 200 ppm (concentration in well 18 ppm), eggs 0-24 h old on artificial diet, 4 days, egg mortality, larval mortality, growth regulation
Experimental: Heliothis virescens (Tobacco Budworm): Eggs (0-24 h old) were placed in 24-well microtiter plate on artificial diet and treated with test solutions at an application rate of 200 ppm (concentration in well 18 ppm) by pipetting. After an incubation period of 4 days, samples were checked for egg mortality, larval mortality, and growth regulation.

Plutella xylostella = Plutella xylostella (diamond back moth) artificial diet test; conditions: 144 h, 200 ppm (concentration in well 18 ppm), L2 larvae, 6 days, larval mortality, growth regulation
Experimental: (§1) Plutella xylostella (Diamond Back Moth): 24-well microtiter plate (MTP) with artificial diet was treated with test solutions at an application rate of 200 ppm (concentration in well 18 ppm) by pipetting. After drying, the MTP's were infested with L2 larvae (7-12 per well). After an incubation period of 6 days, samples were checked for larval mortality and growth regulation.

Diabrotica balteata = Diabrotica balteata (corn root worm) artificial diet test; conditions: 120 h, 200 ppm (concentration in well 18 ppm), L2 larvae, 5 days, larval mortality, growth regulation
Experimental: as §1, with “Diabrotica Balteata (Corn Root Worm): A” for “Plutella xylostella (Diamond Back Moth):”, “with” for “with L2”, “(L2) (6-10” for “(7-12”, “5” for “6”, “mortality,” for “mortality”

Measured: pest or weed control at 200 ppm

O=C(Nc1cc(F)c(F)cc1C1CCN(Cc2ccc(-c3ccc(F)cc3)cc2)CC1)c1ccnc(Cl)c1 [Compound A3, 2-chloro-N-{4,5-difluoro-2-[1-(4′-fluoro-biphenyl-4-ylmethyl)-piperidin-4-yl]-phenyl}-isonicotinamide]
≥ 80%: all assays above

O=C(Nc1cc(F)c(F)cc1C1CC[N+]([O-])(Cc2ccc(-c3ccc(F)cc3)cc2)CC1)c1ccnc(Cl)c1 (centres unmarked) [Compound B1, 2-chloro-N-{4,5-difluoro-2-[1-(4′-fluoro-biphenyl-4-ylmethyl)-1-oxy-piperidin-4-yl]-phenyl}-isonicotinamide]
≥ 80%: all assays above

O=C(Nc1cc(F)c(Br)nc1C1CCN(Cc2ccc(-c3ccc(F)cc3)cc2)CC1)c1ccnc(Cl)c1 [Compound C5, N-[6-bromo-5-fluoro-1′-(4′-fluoro-biphenyl-4-ylmethyl)-1′,2′,3′,4′,5′,6′-hexahydro-[2,4′]bipyridinyl-3-yl]-2-chloro-isonicotinamide]
≥ 80%: all assays above

O=C(Nc1ccc(C(F)F)nc1C1CCN(Cc2ccc(-c3ccc(F)cc3)cc2)CC1)c1ccnc(Cl)c1 [Compound C6]
≥ 80%: all assays above

O=C(Nc1cc(Cl)c(OCC(F)(F)F)nc1C1CCN(Cc2ccc(-c3ccc(F)cc3)cc2)CC1)c1ccnc(Cl)c1 [Compound C9, 2-chloro-N-[5-chloro-1′-(4′-fluoro-biphenyl-4-ylmethyl)-6-(2,2,2-trifluoro-ethoxy)-1′,2′,3′,4′,5′,6′-hexahydro-[2,4′]bipyridinyl-3-yl]-isonicotinamide]
≥ 80%: all assays above

COc1ccc(NC(=O)c2ccnc(Cl)c2)c(C2CCN(Cc3ccc(-c4ccc(F)cc4)cc3)CC2)n1 [Compound C10, 2-chloro-N-[1′-(4′-fluoro-biphenyl-4-ylmethyl)-6-methoxy-1′,2′,3′,4′,5′,6′-hexahydro-[2,4′]bipyridinyl-3-yl]-isonicotinamide]
≥ 80%: all assays above

C=Cc1ccc(NC(=O)c2ccnc(Cl)c2)c(C2CCN(Cc3ccc(-c4ccc(F)cc4)cc3)CC2)n1 [Compound C11, 2-chloro-N-[1′-(4′-fluoro-biphenyl-4-ylmethyl)-6-vinyl-1′,2′,3′,4′,5′,6′-hexahydro-[2,4′]bipyridinyl-3-yl]-isonicotinamide]
≥ 80%: all assays above

O=C(Nc1cc(Cl)c(C2CC2)nc1C1CCN(Cc2ccc(-c3ccc(F)cc3)cc2)CC1)c1ccnc(Cl)c1 [Compound C13, 2-chloro-N-[5-chloro-6-cyclopropyl-1′-(4′-fluoro-biphenyl-4-ylmethyl)-1′,2′,3′,4′,5′,6′-hexahydro-[2,4′]bipyridinyl-3-yl]-isonicotinamide]
≥ 80%: all assays above

O=C(Nc1cc(C(F)(F)F)c(Br)nc1C1CCN(Cc2ccc(-c3ccc(F)cc3)cc2)CC1)c1ccnc(Cl)c1 [Compound C15]
≥ 80%: all assays above

O=C(Nc1cc(C(F)(F)F)c(Cl)nc1C1CCN(Cc2ccc(-c3ccc(F)cc3)cc2)CC1)c1ccnc(Cl)c1 [Compound C16]
≥ 80%: all assays above

O=C(Nc1cc(F)c(Cl)nc1C1CCN(Cc2ccc(-c3ccc(F)cc3)cc2)CC1)c1ccnc(Cl)c1 [Compound C17, 2-chloro-N-[6-chloro-5-fluoro-1′-(4′-fluoro-biphenyl-4-ylmethyl)-1′,2′,3′,4′,5′,6′-hexahydro-[2,4′]bipyridinyl-3-yl]-isonicotinamide]
≥ 80%: all assays above

O=C(Nc1cc(Br)cnc1C1CCN(Cc2ccc(-c3ccc(F)cc3)cc2)CC1)c1ccnc(Cl)c1 [Compound C23, N-[5-bromo-1′-(4′-fluoro-biphenyl-4-ylmethyl)-1′,2′,3′,4′,5′,6′-hexahydro-[2,4′]bipyridinyl-3-yl]-2-chloro-isonicotinamide]
≥ 80%: all assays above

O=C(Nc1cc(Br)c(Cl)nc1C1CCN(Cc2ccc(-c3ccc(F)cc3)cc2)CC1)c1ccnc(Cl)c1 [Compound C24, N-[5-bromo-6-chloro-1′-(4′-fluoro-biphenyl-4-ylmethyl)-1′,2′,3′,4′,5′,6′-hexahydro-[2,4′]bipyridinyl-3-yl]-2-chloro-isonicotinamide]
≥ 80%: all assays above

O=C(Nc1cc(F)c(F)nc1C1CCN(Cc2ccc(-c3ccc(F)cc3)cc2)CC1)c1ccnc(Cl)c1 [Compound C25, 2-chloro-N-{1′-(4′-fluoro-biphenyl-4-ylmethyl)-5,6-difluoro-1′,2′,3′,4′,5′,6′-hexahydro-[2,4′]bipyridinyl-3-yl}-isonicotinamide]
≥ 80%: all assays above

Cc1cc(NC(=O)c2ccnc(Cl)c2)c(C2CCN(Cc3ccc(-c4ccc(F)cc4)cc3)CC2)nc1Cl [Compound C26, 2-chloro-N-[6-chloro-1′-(4′-fluoro-biphenyl-4-ylmethyl)-5-methyl-1′,2′,3′,4′,5′,6′-hexahydro-[2,4′]bipyridinyl-3-yl]-isonicotinamide]
≥ 80%: all assays above

O=C(Nc1c(C2CCN(Cc3ccc(-c4ccc(F)cc4)cc3)CC2)nc(Cl)c(Cl)c1Cl)c1ccnc(Cl)c1 [Compound C30, 2-chloro-N-{4,5,6-trichloro-1′-(4′-fluoro-biphenyl-4-ylmethyl)-1′,2′,3′,4′,5′,6′-hexahydro-[2,4′]bipyridinyl-3-yl}-isonicotinamide]
≥ 80%: all assays above

O=C(Nc1cc(C(F)(F)F)c(F)nc1C1CCN(Cc2ccc(-c3ccc(F)cc3)cc2)CC1)c1ccnc(Cl)c1 [Compound C31, 2-chloro-N-{1′-(4′-fluoro-biphenyl-4-ylmethyl)-6-fluoro-5-trifluoromethyl-1′,2′,3′,4′,5′,6′-hexahydro-[2,4′]bipyridinyl-3-yl}-isonicotinamide]
≥ 80%: all assays above

O=C(Nc1ccc(OC(F)F)nc1C1CCN(Cc2ccc(-c3ccc(F)cc3)cc2)CC1)c1ccnc(Cl)c1 [Compound C40, 2-chloro-N-{1′-(4′-fluoro-biphenyl-4-ylmethyl)-6-difluoromethoxy-1′,2′,3′,4′,5′,6′-hexahydro-[2,4′]bipyridinyl-3-yl}-isonicotinamide]
≥ 80%: all assays above

O=C(Nc1c(F)cc(C(F)(F)F)nc1C1CCN(Cc2ccc(-c3ccc(F)cc3)cc2)CC1)c1ccnc(Cl)c1 [Compound C41, 2-chloro-N-{1′-(4′-fluoro-biphenyl-4-ylmethyl)-4-fluoro-6-trifluoromethyl-1′,2′,3′,4′,5′,6′-hexahydro-[2,4′]bipyridinyl-3-yl}-isonicotinamide]
≥ 80%: all assays above

O=C(Nc1ccc(C(F)(F)F)nc1C1CC[N+]([O-])(Cc2ccc(-c3ccc(F)cc3)cc2)CC1)c1ccnc(Cl)c1 (centres unmarked) [Compound D1, 2-chloro-N-[1′-(4′-fluoro-biphenyl-4-ylmethyl)-1′-oxy-6-trifluoromethyl-1′,2′,3′,4′,5′,6′-hexahydro-[2,4′]bipyridinyl-3-yl]-isonicotinamide]
≥ 80%: all assays above
